Source: patent US20040023935A1, “Inhalation compositions, methods of use thereof, and process for preparation of same” (Dey, L.P., priority 2002, published 2004)
≈ marks a conversion by molar mass, not a printed value.

What was measured:
[1] = Fluticasone solubilized in molten surfactant phase at 60° C.; type: physicochemical
Protocol: Whether the cosolvent, if present, is added to either the molten TPGS phase or the aqueous phase prior to mixing of the concentrate and the aqueous phase has been found herein to affect the stability of the resulting diluted composition. […] Cosolvents such as propylene glycol (PG) and polyethylene glycol 400 (PEG 400) can influence the amount solubilized by affecting the amount dissolved in the molten TPGS phase.
However, the order of addition influences the amount of drug that may be solubilized. If PG or PEG 400 is added in the molten TPGS phase before adding the drug, the amount solubilized increases (see Table 6b, below).

[2] = Amount of fluticasone solubilized in aqueous TPGS composition, by order of addition/mixing; type: physicochemical; settings: target concentration 180 mcg/ml; for solubility: aqueous TPGS composition, aqueous with cosolvent or surfactant or cyclodextrin
Protocol: In one embodiment, the drug is dissolved in the surfactant, such as molten TPGS, and then added to water. For example, when fluticasone propionate is prepared this way with a target concentration of 180 mcg/ml, the amount solubilized by addition of molten TPGS containing the drug to water is about 180 mcg/mL. The amount solubilized by addition of water to molten TPGS, followed by addition of the drug, is only 77 mcg/mL. If the aqueous phase is added to the molten TPGS, the TPGS phase forms a gel and this, apart from making the mixing process slower, makes the amount solubilized lower and variable.
Thus, in Process 1, aqueous phase is added to a solution of the drug in molten TPGS. In Process 2, a solution of the drug in molten TPGS is added to the aqueous phase. To avoid gel formation, the TPGS phase is added to the aqueous phase and slowly. Rapid addition may form gel. Also, high speed mixing reduces the formation of gel.

Row | Fluticasone solubilized in molten surfactant phase at 60° C. ([1]; Surfactant phase: TPGS alone) | Fluticasone solubilized in molten surfactant phase at 60° C. ([1]; Surfactant phase: TPGS and polyethylene glycol 400 (1:1)) | Fluticasone solubilized in molten surfactant phase at 60° C. ([1]; Surfactant phase: TPGS and propylene glycol (2.4:1)) | Amount solubilized as percent of theoretical concentration, Mean ([2]; Process 1 (Aqueous phase added to the TPGS phase all at once and then mixed)) [%] | Amount solubilized as percent of theoretical concentration, Mean ([2]; Process 2 (TPGS phase added to aqueous phase slowly with mixing)) [%] | solubility ([2]; addition of molten TPGS containing the drug to water) [µg/mL] | solubility ([2]; addition of water to molten TPGS, followed by addition of the drug) [µg/mL] | SMILES
1 | 6.5 mg/g of TPGS | 20.0 mg/g of TPGS | 11.9 mg/g of TPGS | 93.64 | 99.53 |  |  | C[C@@H]1C[C@H]2[C@@H]3C[C@H](F)C4=CC(=O)C=C[C@]4(C)[C@@]3(F)[C@@H](O)C[C@]2(C)[C@@]1(O)C(=O)SCF [Fluticasone, (6α,9α,11α,16α,17α)-6,9-difluoro-11-hydroxy-16-methyl-3-oxo-17-hydroxyandrosta-1,4-diene-17-carbothioic acid, S-fluoromethyl ester]
2 |  |  |  |  |  | ~180 (≈ 360 µM) | 77 (≈ 154 µM) | CCC(=O)O[C@]1(C(=O)SCF)[C@H](C)C[C@H]2[C@@H]3C[C@H](F)C4=CC(=O)C=C[C@]4(C)[C@@]3(F)[C@@H](O)C[C@@]21C [fluticasone propionate, (6α,9α,11α,16α,17α)-6,9-difluro-11-hydroxy-16-methyl-3-oxo-17-(1-oxopropoxy)androsta-1,4-diene-17-carbothioic acid, S-fluoromethyl ester]
